Test results: patent US7662813B2, “Triazole compounds that modulate HSP90 activity” (Synta Pharmaceuticals Corp., priority 2005, dated 2010)

What was measured:
[1] = system: c-kit; assay: FACS-based c-kit degradation assay in Kasumi-1 cells; format: cell-based; conditions: about 18 h
Experimental: Leukemia cell line, Kasumi-1, was used for testing c-kit degradation induced by Hsp90 inhibitors of the invention. The cells (3×10^5 per well) were treated with 17AAG (0.5 μM) or Compound 11 (0.05 μM or 0.5 μM) for about 18 h. The cells were collected and centrifuged (SORVALL RT 6000D) at 1200 rpm for 5 min. The supernatants were discarded, and the cells were washed one time with 1×PBS. After centrifugation the cells were stained with FITC conjugated c-kit antibody (MBL International, Cat# K0105-4) in […] 1×PBS at 4° C. for 1 h. The samples were read and analyzed with FACSCalibur flow cytometer (Becton Dicknson).

[2] = system: c-kit; assay: Western blot analysis of c-Kit in Kasumi-1 cells; format: cell-based
Experimental: The results of the FACS analysis were confirmed with Western blot analysis (see FIG. 2). […] In contrast, 17-AAG had no effect of c-Kit protein levels at either 100 nM or 400 nM.

[3] = system: Her2; assay: Degradation of Her2 in BT-474 cells (Method 1, Western blot); format: cell-based, human; conditions: 0.5 μM, overnight
Experimental: Human high-Her2 breast carcinoma BT474 (HTB-20), SK-BR-3 (HTB-30) and MCF-7 breast carcinoma (HTB-22) from American Type Culture Collection, VA, USA were grown in Dulbecco's modified Eagle's medium with 4 mM L-glutamine and antibiotics (100 IU/ml penicillin and 100 ug/ml streptomycine; GibcoBRL). To obtain exponential cell growth, cells were trypsinized, counted and seeded at a cell density of 0.5×10^6 cells /ml regularly, every 3 days. All experiments were performed on day 1 after cell passage.
BT-474 cells are treated with 0.5 μM, 2 μM, or 5 μM of 17AAG (a positive control) or 0.5 μM, 2 μAM, or 5 μM of a compound of the invention overnight in DMEM medium. After treatment, each cytoplasmic sample is prepared from 1×10^6 cells by incubation of cell lysis buffer (#9803, cell Signaling Technology) on ice for 10 minutes. The resulting supernatant used as the cytosol fractions is dissolved with sample buffer for SDS-PAGE and run on a SDS-PAGE gel, blotted onto a nitrocellulose membrane by using semi-dry transfer. Non-specific binding to nitrocellulose is blocked with 5% skim milk in TBS with 0.5% Tween at room temperature for 1 hour, then probed with anti-Her2/ErB2 mAb (rabbit IgG, #2242, Cell Signaling) and anti-Tubulin (T9026, Sigmna) as housekeeping control protein. […]

Compound | c-kit degradation (FACS) ([1]; 0.05 μM) | c-kit degradation (FACS) ([1]; 0.5 μM) | Degradation of c-Kit (Western blot) ([2]; 100 nM) | Degradation of c-Kit (Western blot) ([2]; 400 nM) | Degradation of Her2 [3]
CCCN(C)c1cc(-n2c(S)nnc2-c2cc(C(C)C)c(O)cc2O)ccc1OC [Compound 11, 4-(4-(3-(N-methyl-N-propylamino)-4-methoxyphenyl)-5-mercapto-4H-1,2,4-triazol-3-yl)-6-isopropylbenzene-1,3-diol] | induced c-kit degradation | induced c-kit degradation | induced the degradation of c-Kit | induced the degradation of c-Kit | –
CCN(C)c1cc(-n2c(S)nnc2-c2cc(C(C)C)c(O)cc2O)ccc1OC [Compound 12, 4-(4-(3-(N-methyl-N-ethylamino)-4-methoxy-phenyl)-5-mercapto-4H-1,2,4-triazol-3-yl)-6-isopropylbenzene-1,3-diol] | – | – | induced the degradation of c-Kit | induced the degradation of c-Kit | –
C=CCNC1=C2C[C@@H](C)C[C@H](OC)[C@H](O)[C@@H](C)/C=C(\C)[C@H](OC(N)=O)[C@@H](OC)/C=C\C=C(/C)C(=O)NC(=CC1=O)C2=O [Compound 17AAG, reference compound] | – | could not induce c-kit degradation | no effect | no effect | partial degradation of Her2
